According to patent US8455549B2, “Carbonylamino derivatives useful for the treatment of certain inflammatory disorders” (Aniona Aps, priority 0207, dated 2013):

System: DNBS-induced distal colitis
Assay: Inhibition of 2,4-Dinitrobenzenesulfonic Acid (DNBS)-induced distal colitis in rats
Assay type: in vivo, rat
Conditions: PO bid × 7, dose not specified
Protocol: Test substances A and B were evaluated for possible inhibition of 2,4-Dinitrobenzenesulfonic Acid (DNBS)-induced distal colitis in rats, which is a model of inflammatory bowel disease. The test compounds were soluble in a mixture of Cremophore EL, PEG400 and distilled water (10:10:80). Test substance was administered orally (PO) twice daily for 7 consecutive days. The dosing volume used was 10 ml/kg for PO. For test of Compound A groups of 10 Wistar derived male rats (BioLasco Taiwan) weighing 200±10 g were used. For test of Compound B groups of 5 Wistar derived male rats (BioLasco Taiwan) weighing 210±5 g were used. […] During the experiment, faecal occult blood and stool consistency were monitored daily. […] Also, the presence of colonic ulceration after removal and weighing of each colon (a macroscopic damage score) was recorded. […] The colon-to-body weight ratio was calculated according to the formula: (A) Colon-to-Body weight ratio (Colon weight/100 g B. W.) for each rat in respective treatment groups (vehicle blank, vehicle+DNBS, Test substance+DNBS and positive reference agent+DNBS) (B) The Net Increase of Colon weight/100 g B. W. For “vehicle+DNBS”: [(vehicle+DNBS)−(vehicle blank)] mean value of colon-to-body weight ratio For “test substance+DNBS”: [(test substance+DNBS)−(vehicle blank)] mean value of colon-to-body weight ratio (C) The percent decrease of colon weight/100 g B. Wt. […]

CC(C)C(C(N)=O)(c1ccc(F)cc1)c1ccc(F)cc1 [Compound A, 2,2-Bis-(4-fluoro-phenyl)-3-methyl-butyramide]
stool consistency, occult faecal blood and macroscopic damage (adhesion and ulcers) in the colon: improved

NC(=O)C(c1ccccc1)(c1ccc(F)cc1)c1ccc(F)cc1 [Compound B, 2,2-Bis-(4-fluoro-phenyl)-2-phenyl-acetamide]
stool consistency, occult faecal blood and macroscopic damage (adhesion and ulcers) in the colon: improved
